Entries after “also recorded” stand apart in the source; their conditions may differ. Counter-ions that a name gives are not always drawn.
Tests used:
zebrafish [1] = assay: Social preference test in zebrafish, MK-801 model; format: in vivo, Danio rerio; conditions: for overall effect on all parameters of the social preference test: drug pretreatment, then water or MK-801 5 μM
Procedure: (§1) Here, the ability of alstonine salts to reverse schizophrenia-like symptoms produced by MK-801 in zebrafish was evaluated. The atypical antipsychotic olanzapine was used as a comparison.
(§2) Experiments were performed using male and female (50:50 ratio) short-fin wild-type zebrafish (4-month-old, 300-500 mg). Adult animals were obtained from a local commercial supplier (Delphis, R S, Brazil). The animals were maintained at Instituto de Ciências Básicas da Saúde in a light/dark cycle of 14/10 h with lights on at 7:00 a.m for at least two weeks before tests. Fish were kept in 40-L (30×46×33 cm) unenriched glass tanks with non-chlorinated water at a maximum density of five animals per liter. Tank water satisfied the controlled conditions required for zebrafish (26±2° C.; pH 7.0±0.3; dissolved oxygen at 7.0±0.4 mg/L; total ammonia at <0.01 mg/L; total hardness at 5.8 mg/L; alkalinity at 22 mg/L CaCO3; conductivity of 1,500-1,600 μS/cm) and was constantly filtered by mechanical, biological, and chemical filtration systems. Food was provided twice a day as commercial flake food (Poytara®, SP, Brazil) plus brine shrimp (Artemia salina). The sex of the animals was confirmed after euthanasia by dissecting and analyzing the gonads. For all experiments, no sex effects were observed, so data were pooled together. Animals were euthanized by hypothermic shock according to the AVMA Guidelines for the Euthanasia of Animals (Leary and Johnson, 2020).
(§3) MK-801 (dizocilpine) and sulpiride were purchased from Sigma-Aldrich (St. Louis, MO, USA); olanzapine was purchased from Selleck Chemicals. Alstonine hydrochloride, alstonine benzoate, and alstonine benzensulfonate were prepared as described herein. MK-801, olanzapine, and alstonine hydrochloride were dissolved in distilled water, with sonication in an ultrasonic bath for the latter. Sulpiride, alstonine benzoate, and alstonine benzensulfonate were dissolved in 100% DMSO; stock solutions were diluted to achieve a final DMSO concentration of 1% for the highest concentration. MK-801 solutions were freshly prepared, while alstonine stock solutions were kept refrigerated for up to five days. Exposure solutions were renovated halfway through the experiment, with a maximum of four fish exposed to the same solution.
(§4) Different sets of animals were used for each experiment, totaling 600 zebrafish in the study (plus 200 zebrafish serving as stimulus animals). Animals were individually exposed to water or alstonine solutions at 2.5, 5 or 10 mg/L in 500-mL beakers containing 200-mL solution for 20 min (n=15). These concentrations were extrapolated from mice studies. Fish were then transferred to another beaker containing either water or MK-801 at 5 μM and remained there for another 20 minutes.
(§5) The animals were allocated to the experimental groups following block randomization procedures to counterbalance for home tank, sex, and day of testing. The order for outcome assessment was also randomized and care was taken to counterbalance the test apparatuses across the experimental groups. Outcome assessors were blind to the experimental groups, as well as the experimenters responsible for taking the animal and placing it in the test apparatus.
The protocol for the social preference test in zebrafish followed the method described by Benvenutti et al. (2021). After exposure, animals were placed for 7 min in a tank (30×10×15 cm) flanked by two identical tanks (15×10×13 cm) either empty (neutral stimulus) or containing 10 unknown zebrafish (social stimulus). All three tanks were filled with water in standard conditions at a level of 10 cm. The position of the social stimulus (right or left) was counterbalanced throughout the tests. The water in the test tanks was changed between every animal. To assess social behavior, the test apparatus was virtually divided into three vertical zones (interaction, middle, and neutral). Animals were habituated to the apparatus for 2 min and then analyzed for the last 5 min. […]

zebrafish [2] = assay: Open tank test in zebrafish, MK-801 model; format: in vivo, Danio rerio; conditions: for overall effect on the analyzed parameters of the open tank test: drug pretreatment
Procedure: as §1, §2, §3, §4, §5
The protocol for the open tank test followed the method described by Benvenutti et al. (2021). Immediately after the social preference test, animals were placed in the center of the open tank arena and recorded for 10 min. The apparatus consisted of a white circular arena (24 cm in diameter and 8 cm in height, 2 cm water level). The apparatus format and the acquisition of videos from the top view allows the evaluation of locomotor parameters related to stereotypic behavior (circular movements and absolute turn angle). The water was changed between every animal. The following outcomes were automatically scored using ANY-Maze software (Stoelting Co., Wood Dale, IL, USA): total distance traveled, absolute turn angle, number of clockwise rotations, and immobility time. […]

D2, and 5-HT2A receptors = conditions: cortex membranes; preliminary binding studies; cited from earlier work
dopamine (DA) uptake = conditions: mouse striatal synaptosomes; cited from earlier work
mice = conditions: 0.5-1.0 mg/kg ip; cited from earlier work
D1 = target: T1, D1 (Homo sapiens, UniProt P21728); conditions: cortex membranes; preliminary binding studies; cited from earlier work
T1 construct: host or cells: cortex membranes (tissue)
T1 sequence (P21728 whole entry): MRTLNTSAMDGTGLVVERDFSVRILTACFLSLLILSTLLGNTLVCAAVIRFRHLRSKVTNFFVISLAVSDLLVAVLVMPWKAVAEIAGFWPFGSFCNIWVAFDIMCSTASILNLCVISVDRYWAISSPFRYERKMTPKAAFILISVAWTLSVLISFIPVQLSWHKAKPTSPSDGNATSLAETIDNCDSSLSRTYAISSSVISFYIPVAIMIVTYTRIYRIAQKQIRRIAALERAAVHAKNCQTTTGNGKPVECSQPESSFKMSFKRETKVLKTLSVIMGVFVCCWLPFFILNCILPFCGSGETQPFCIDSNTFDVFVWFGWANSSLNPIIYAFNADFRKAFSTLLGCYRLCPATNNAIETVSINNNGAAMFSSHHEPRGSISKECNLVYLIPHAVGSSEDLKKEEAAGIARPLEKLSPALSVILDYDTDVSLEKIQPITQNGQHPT

[3] = MK-801 5 μM vs control, experiment with olanzapine
[4] = MK-801 5 μM vs controls, experiment with sulpiride

In the case of `COC(=O)C1=CO[C@@H](C)[C@@H]2Cn3ccc4c5ccccc5nc-4c3C[C@H]12` [Alstonine hydrochloride], the “overall effect on all parameters of the social preference test” value (“overall effect on all parameters” below) (zebrafish [1]) was “potentiated the effects of MK-801 in the social preference test”, the “time in the zone of interaction” value (zebrafish [1]; fish exposed 20 min to drug, then 20 min to water or MK-801 5 μM, main effect of drug pretreatment, two-way ANOVA) was “nonspecifically reduced the time in the zone of interaction at the intermediate and highest concentrations” and the number of crossings (zebrafish [1]; interaction between drug pretreatment and MK-801 5 μM, Bonferroni post hoc) was “potentiated the effect of MK-801 at the intermediate concentration”.

In the case of `C[C@]12N[C@H](Cc3ccccc31)c1ccccc12` [MK-801, dizocilpine], the absolute turn angle (zebrafish [2]; main effect of MK-801 5 μM) was “decreased”, the clockwise rotations (zebrafish [2]; main effect of MK-801 5 μM) was “decreased” and the distance traveled (zebrafish [2]; main effect of MK-801 5 μM) was “decreased the distance traveled”. The immobility time (zebrafish [2]; main effect of MK-801 5 μM) was “increased the immobility time”, the number of crossings (zebrafish [1]; [3]) was “increased” and the “time in the social interaction zone” value (zebrafish [1]; [3]) was “spent less time in the social interaction zone”. The total distance traveled (zebrafish [1]; [3]) was “increased the total distance traveled”, the immobility time (zebrafish [1]; [4]) was “increased” and the number of crossings (zebrafish [1]; [4]) was “increased the number of crossings”.

In the case of `CCN1CCCC1CNC(=O)c1cc(S(N)(=O)=O)ccc1OC` (stereo not shown) [Sulpiride, sulpiride], the “overall effect on the analyzed parameters of the open tank test” value (zebrafish [2]; then water or MK-801 5 μM) was “no significant effects on any of the analyzed parameters” and the “overall effect on all parameters” value (zebrafish [1]) was “devoid of effects on all parameters”.

In the case of `COC(=O)C1=COC(C)C2C[n+]3ccc4c([nH]c5ccccc54)c3CC12.O=S(=O)([O-])c1ccccc1` (stereo not shown) [alstonine benzensulfonate, Alstonine benzenesulfonate], the immobility time (zebrafish [2]; drug pretreatment 20 min, then water or MK-801 5 μM, interaction with MK-801, post hoc) was “the intermediate and highest concentrations prevented the increase in immobility time induced by MK-801; also recorded: subgroup of animals that respond to alstonine benzensulfonate regarding immobility time to the level of controls”, the distance traveled (zebrafish [2]; drug pretreatment 20 min, then water or MK-801 5 μM, main effect of drug) was “trend for a main effect on total distance” and the clockwise rotations (zebrafish [2]; drug pretreatment 20 min, then water or MK-801 5 μM, main effect or interaction with MK-801) was “significant interaction; also recorded: preventing (at the highest concentrations) the effects of MK-801 on clockwise rotations”. The “overall effect on the analyzed parameters of the open tank test” value (zebrafish [2]; then water or MK-801 5 μM) was “possess antipsychotic-like properties similar to olanzapine” and the “overall effect on all parameters” value (zebrafish [1]) was “devoid of statistically significant effects”.

In the case of `COC(=O)C1=COC(C)C2C[n+]3ccc4c([nH]c5ccccc54)c3CC12.O=C([O-])c1ccccc1` (stereo not shown) [alstonine benzoate, Alstonine benzoate], the “overall effect on all parameters” value (zebrafish [1]) was “devoid of statistically significant effects” and the immobility time (zebrafish [1]; interaction between drug pretreatment and MK-801 5 μM) was “trend for alstonine benzoate to prevent the effects of MK-801 on immobility time in the highest concentration tested”.

In the case of `COC(=O)C1=CO[C@@H](C)[C@@H]2Cn3ccc4c5ccccc5nc-4c3C[C@H]12` [alstonine], the “effect on [3H]Spiperone binding” value (D2, and 5-HT2A receptors) is listed as “does not affect”, the DA uptake (dopamine (DA) uptake) is listed as “increasing DA uptake” and the “antipsychotic properties in mice models” value (mice) is listed as “shows antipsychotic properties”. For the same compound, the “effect on [3H]SCH23390 binding” value (D1) was “does not affect”.

Source: patent US20240425514A1, “ALSTONINE DERIVATIVES AND SALTS THEREOF” (priority 2021, published 2024)
